In US20120015907A1, “Furopyridine compounds and uses thereof” (NOVARTIS AG, priority 2010, published 2012):

Target: T1, HCV polymerase (Hepatitis C virus genotype 1b, UniProt Q9WMX2)
T1 construct: (His)6 (C)
Test: biochemical
Settings: polymerase assay of Biological Example 1; read-out: NS5B polymerase IC50

IC50	Compound
74 nM	CCc1cc2c(C(=O)NC)c(-c3ccc(F)cc3)oc2nc1N(CCCC#N)S(C)(=O)=O [Example 21.991, 6-(N-(3-cyanopropyl)methylsulfonamido)-5-ethyl-2-(4-fluorophenyl)-N-methylfuro[2,3-b]pyridine-3-carboxamide]
228 nM	CCc1cc2c(C(=O)NC)c(-c3ccc(F)cc3)oc2nc1N(CCc1ccc(OC)cc1)S(C)(=O)=O [Example 21.993, 5-ethyl-2-(4-fluorophenyl)-6-(N-(4-methoxyphenethyl)methylsulfonamido)-N-methylfuro[2,3-b]pyridine-3-carboxamide]
147 nM	CCc1cc2c(C(=O)NC)c(-c3ccc(F)cc3)oc2nc1N(CC1CCOCC1)S(C)(=O)=O [Example 21.994, 5-ethyl-2-(4-fluorophenyl)-N-methyl-6-(N-((tetrahydro-2H-pyran-4-yl)methyl)methylsulfonamido)furo[2,3-b]pyridine-3-carboxamide]
155 nM	CCc1cc2c(C(=O)NC)c(-c3ccc(F)cc3)oc2nc1N(CCC1CCN(C(=O)OC(C)(C)C)CC1)S(C)(=O)=O [Example 21.995, tert-butyl 4-(2-(N-(5-ethyl-2-(4-fluorophenyl)-3-(methylcarbamoyl)furo[2,3-b]pyridin-6-yl)methylsulfonamido)ethyl)piperidine-1-carboxylate]
94 nM	CCc1cc2c(C(=O)NC)c(-c3ccc(F)cc3)oc2nc1N(CCc1ccncc1)S(C)(=O)=O [Example 21.996, 5-ethyl-2-(4-fluorophenyl)-N-methyl-6-(N-(2-(pyridin-4-yl)ethyl)methylsulfonamido)furo[2,3-b]pyridine-3-carboxamide]
148 nM	CCc1cc2c(C(=O)NC)c(-c3ccc(F)cc3)oc2nc1N(CC1CCN(C(=O)OC(C)(C)C)CC1)S(C)(=O)=O [Example 21.997, tert-butyl 4-((N-(5-ethyl-2-(4-fluorophenyl)-3-(methylcarbamoyl)furo[2,3-b]pyridin-6-yl)methylsulfonamido)methyl)piperidine-1-carboxylate]
428 nM	CCc1cc2c(C(=O)NC)c(-c3ccc(F)cc3)oc2nc1N(CCN1CCN(C(=O)OC(C)(C)C)CC1)S(C)(=O)=O [Example 21.998, tert-butyl 4-(2-(N-(5-ethyl-2-(4-fluorophenyl)-3-(methylcarbamoyl)furo[2,3-b]pyridin-6-yl)methylsulfonamido)ethyl)piperazine-1-carboxylate]
112 nM	CCc1cc2c(C(=O)NC)c(-c3ccc(F)cc3)oc2nc1N(CCCN1CCN(C(=O)OC(C)(C)C)CC1)S(C)(=O)=O [Example 21.999, tert-butyl 4-(3-(N-(5-ethyl-2-(4-fluorophenyl)-3-(methylcarbamoyl)furo[2,3-b]pyridin-6-yl)methylsulfonamido)propyl)piperazine-1-carboxylate]
169 nM	CCc1cc2c(C(=O)NC)c(-c3ccc(F)cc3)oc2nc1N(CCc1scnc1C)S(C)(=O)=O [Example 22, 5-ethyl-2-(4-fluorophenyl)-N-methyl-6-(N-(2-(4-methylthiazol-5-yl)ethyl)methylsulfonamido)furo[2,3-b]pyridine-3-carboxamide]
34 nM	CCc1cc2c(C(=O)NC)c(-c3ccc(F)cc3)oc2nc1N(CCCCOc1ccccc1OC)S(C)(=O)=O [Example 22.1, 5-ethyl-2-(4-fluorophenyl)-6-(N-(4-(2-methoxyphenoxy)butyl)methylsulfonamido)-N-methylfuro[2,3-b]pyridine-3-carboxamide]
281 nM	CCc1cc2c(C(=O)NC)c(-c3ccc(F)cc3)oc2nc1N(CCc1ccc(OC)c(OC)c1)S(C)(=O)=O [Example 22.2, 6-(N-(3,4-dimethoxyphenethyl)methylsulfonamido)-5-ethyl-2-(4-fluorophenyl)-N-methylfuro[2,3-b]pyridine-3-carboxamide]
89 nM	CCc1cc2c(C(=O)NC)c(-c3ccc(F)cc3)oc2nc1N(CCN1CCSCC1)S(C)(=O)=O [Example 22.3, 5-ethyl-2-(4-fluorophenyl)-N-methyl-6-(N-(2-thiomorpholinoethyl)methylsulfonamido)furo[2,3-b]pyridine-3-carboxamide]
33 nM	CCc1cc2c(C(=O)NC)c(-c3ccc(F)cc3)oc2nc1N(CCOCCN1C(=O)NC(C)(C)C1=O)S(C)(=O)=O [Example 22.4, 6-(N-(2-(2-(4,4-dimethyl-2,5-dioxoimidazolidin-1-yl)ethoxy)ethyl)methylsulfonamido)-5-ethyl-2-(4-fluorophenyl)-N-methylfuro[2,3-b]pyridine-3-carboxamide]
83 nM	CCc1cc2c(C(=O)NC)c(-c3ccc(F)cc3)oc2nc1N(CCOc1ccccc1C(=O)OC)S(C)(=O)=O [Example 22.5, methyl 2-(2-(N-(5-ethyl-2-(4-fluorophenyl)-3-(methylcarbamoyl)furo[2,3-b]pyridin-6-yl)methylsulfonamido)ethoxy)benzoate]
251 nM	CCc1cc2c(C(=O)NC)c(-c3ccc(F)cc3)oc2nc1N(CCOc1cccc(C(=O)OC)c1)S(C)(=O)=O [Example 22.6, methyl 3-(2-(N-(5-ethyl-2-(4-fluorophenyl)-3-(methylcarbamoyl)furo[2,3-b]pyridin-6-yl)methylsulfonamido)ethoxy)benzoate]
53 nM	CCc1cc2c(C(=O)NC)c(-c3ccc(F)cc3)oc2nc1N(CCOc1ccc(C(=O)OC)cc1)S(C)(=O)=O [Example 22.7, methyl 4-(2-(N-(5-ethyl-2-(4-fluorophenyl)-3-(methylcarbamoyl)furo[2,3-b]pyridin-6-yl)methylsulfonamido)ethoxy)benzoate]
45 nM	CCc1cc2c(C(=O)NC)c(-c3ccc(F)cc3)oc2nc1N(CCOc1ccc2cccnc2c1)S(C)(=O)=O [Example 22.8, 5-ethyl-2-(4-fluorophenyl)-N-methyl-6-(N-(2-(quinolin-7-yloxy)ethyl)methylsulfonamido)furo[2,3-b]pyridine-3-carboxamide]
23 nM	CCc1cc2c(C(=O)NC)c(-c3ccc(F)cc3)oc2nc1N(CC[C@H]1COc2c(OC)cccc21)S(C)(=O)=O [Example 22.9, (R)-5-ethyl-2-(4-fluorophenyl)-6-(N-(2-(7-methoxy-2,3-dihydrobenzofuran-3-yl)ethyl)methylsulfonamido)-N-methylfuro[2,3-b]pyridine-3-carboxamide]
34 nM	CCc1cc2c(C(=O)NC)c(-c3ccc(F)cc3)oc2nc1N(CCCS(=O)(=O)N1CCCC1)S(C)(=O)=O [Example 22.91, 5-ethyl-2-(4-fluorophenyl)-N-methyl-6-(N-(3-(pyrrolidin-1-ylsulfonyl)propyl)methylsulfonamido)furo[2,3-b]pyridine-3-carboxamide]
47 nM	CCc1cc2c(C(=O)NC)c(-c3ccc(F)cc3)oc2nc1N(CCCCC(C)O)S(C)(=O)=O (stereo not drawn) [Example 22.93, 5-ethyl-2-(4-fluorophenyl)-6-(N-(5-hydroxyhexyl)methylsulfonamido)-N-methylfuro[2,3-b]pyridine-3-carboxamide]
31 nM	CCc1cc2c(C(=O)NC)c(-c3ccc(F)cc3)oc2nc1N(CCCC(C)(C)O)S(C)(=O)=O [Example 22.94, 5-ethyl-2-(4-fluorophenyl)-6-(N-(4-hydroxy-4-methylpentyl)methylsulfonamido)-N-methylfuro[2,3-b]pyridine-3-carboxamide]
131 nM	CCc1cc2c(C(=O)NC)c(-c3ccc(F)cc3)oc2nc1N(CCCC(=O)N(C)C)S(C)(=O)=O [Example 22.96, 6-(N-(4-(dimethylamino)-4-oxobutyl)methylsulfonamido)-5-ethyl-2-(4-fluorophenyl)-N-methylfuro[2,3-b]pyridine-3-carboxamide]
46 nM	CCc1cc2c(C(=O)NC)c(-c3ccc(F)cc3)oc2nc1N(CCCCC(C)(C)O)S(C)(=O)=O [Example 22.97, 5-ethyl-2-(4-fluorophenyl)-6-(N-(5-hydroxy-5-methylhexyl)methylsulfonamido)-N-methylfuro[2,3-b]pyridine-3-carboxamide]
41 nM	CCc1cc2c(C(=O)NC)c(-c3ccc(F)cc3)oc2nc1N(CCCCC(=O)N(C)C)S(C)(=O)=O [Example 22.992, 6-(N-(5-(dimethylamino)-5-oxopentyl)methylsulfonamido)-5-ethyl-2-(4-fluorophenyl)-N-methylfuro[2,3-b]pyridine-3-carboxamide]
1060 nM	CCc1cc2c(C(=O)NC)c(-c3ccc(F)cc3)oc2nc1N(C(C)C)S(C)(=O)=O [Example 22.993, 5-ethyl-2-(4-fluorophenyl)-6-(N-isopropylmethylsulfonamido)-N-methylfuro[2,3-b]pyridine-3-carboxamide]
1060 nM	CCc1cc2c(C(=O)NC)c(-c3ccc(F)cc3)oc2nc1N(CCN1Cc2ccccc2S1(=O)=O)S(C)(=O)=O [Example 22.994, 6-{[2-(1,1-Dioxo-1,3-dihydrobenzo[d]isothiazol-2-yl)-ethyl]-methanesulfonyl-amino}-5-ethyl-2-(4-fluoro-phenyl)-furo[2,3-b]pyridine-3-carboxylic acid methylamide]
24 nM	CCc1cc2c(C(=O)NC)c(-c3ccc(F)cc3)oc2nc1N(CCN(C)S(=O)(=O)c1ccccc1)S(C)(=O)=O [Example 22.995, 5-ethyl-2-(4-fluorophenyl)-N-methyl-6-(N-(2-(N-methylphenylsulfonamido)ethyl)methylsulfonamido)furo[2,3-b]pyridine-3-carboxamide]
59 nM	CCc1cc2c(C(=O)NC)c(-c3ccc(F)cc3)oc2nc1N(CCCN1CCCC1=O)S(C)(=O)=O [Example 22.996, 5-ethyl-2-(4-fluorophenyl)-N-methyl-6-(N-(3-(2-oxopyrrolidin-1-yl)propyl)methylsulfonamido)furo[2,3-b]pyridine-3-carboxamide]
144 nM	CCc1cc2c(C(=O)NC)c(-c3ccc(F)cc3)oc2nc1N(CCCO)S(C)(=O)=O [Example 23.2, 5-ethyl-2-(4-fluorophenyl)-6-(N-(3-hydroxypropyl)methylsulfonamido)-N-methylfuro[2,3-b]pyridine-3-carboxamide]

Compound	IC50
CCc1cc2c(C(=O)NC)c(-c3ccc(F)cc3)oc2nc1N(CCCCl)S(C)(=O)=O [Example 22.997, 6-(N-(3-chloropropyl)methylsulfonamido)-5-ethyl-2-(4-fluorophenyl)-N-methylfuro[2,3-b]pyridine-3-carboximide]	83 nM
